In ChEMBL document CHEMBL1201862, “PubChem BioAssay data set” (2004):
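Method: 48-hour compound exposure of cells in 96-well plates, five concentrations, linear interpolation of endpoints. Abbreviation: GI50, concentration required for 50% inhibition of growth.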 Calls of active or inactive are those of the source. Rule as the data show it: active = GI50 up to about 1.1 µM and inactive = higher.

How the values were obtained:
Experiment in all cases: DTP human tumour cell line panel, 48 h
HT-29 = tested on: HT-29
SK-MEL-2 = tested on: SK-MEL-2
EKVX = tested on: EKVX
CAKI-1 = tested on: CAKI-1
OVCAR-8 = tested on: OVCAR-8
SR = tested on: SR
SF-295 = tested on: SF-295
SF-539 = tested on: SF-539
HCT-116 = tested on: HCT-116
NCI-H23 = tested on: NCI-H23
CCRF-CEM = tested on: CCRF-CEM
OVCAR-5 = tested on: OVCAR-5
UACC-62 = tested on: UACC-62
DU-145 = tested on: DU-145
HL-60 = tested on: HL-60
SK-MEL-28 = tested on: SK-MEL-28
SNB-75 = tested on: SNB-75
OVCAR-4 = tested on: OVCAR-4
HOP-92 = tested on: HOP-92

Measured: GI50

O=C(Oc1c(I)ccccc1=O)c1ccc([N+](=O)[O-])cc1
inactive: HT-29 12.3 µM | SK-MEL-2 20.5 µM | EKVX 12.4 µM | CAKI-1 24.4 µM | OVCAR-8 22.3 µM | SR 4.34 µM | SF-295 23.2 µM | SF-539 17.9 µM | HCT-116 26.1 µM | NCI-H23 42.4 µM | CCRF-CEM 22.5 µM | OVCAR-5 35.5 µM | UACC-62 22.6 µM | DU-145 11.7 µM | HL-60 18.2 µM | SK-MEL-28 8.09 µM

O=[N+]([O-])c1ccc2c(c1)S(=O)(=O)N1Cc3ccccc3CCN21
inactive: HT-29 > 100 µM | SK-MEL-2 > 100 µM | EKVX 13.3 µM | CAKI-1 > 100 µM | SNB-75 59.3 µM | OVCAR-8 > 100 µM | OVCAR-4 > 100 µM | SR > 100 µM | SF-295 27.1 µM | SF-539 54.5 µM | HCT-116 > 100 µM | NCI-H23 > 100 µM | HOP-92 62.2 µM | CCRF-CEM > 100 µM | OVCAR-5 > 100 µM | UACC-62 > 100 µM | DU-145 > 100 µM | HL-60 > 100 µM | SK-MEL-28 > 100 µM

CC1CC(N2CCOCC2)=Nc2ccccc2N1Cc1ccccc1 (centres undefined)
inactive: HT-29 38.7 µM | SK-MEL-2 > 100 µM | EKVX 90.6 µM | CAKI-1 25.2 µM | OVCAR-8 88.5 µM | OVCAR-4 56.2 µM | SF-295 57.7 µM | HCT-116 > 100 µM | NCI-H23 > 100 µM | CCRF-CEM > 100 µM | OVCAR-5 > 100 µM | UACC-62 44.6 µM | DU-145 > 100 µM | HL-60 29.8 µM | SK-MEL-28 49.1 µM

CCC12C=CCN3CC[C@]4(C(=C(C(=O)OC)[C@@H]1Nc1ccn(C5OC(COC(C)=O)C(OC(C)=O)C5OC(C)=O)c(=O)n1)Nc1ccccc14)C32 (some centres undefined)
inactive: HT-29 4.8 µM | SK-MEL-2 2.39 µM | EKVX 5.81 µM | CAKI-1 5.37 µM | SNB-75 3.95 µM | OVCAR-8 5.16 µM | OVCAR-4 1.72 µM | SR 3.94 µM | SF-295 4.72 µM | SF-539 5 µM | HCT-116 4 µM | NCI-H23 1.62 µM | HOP-92 4.31 µM | CCRF-CEM 4.59 µM | OVCAR-5 1.82 µM | UACC-62 3.47 µM | HL-60 4.51 µM | SK-MEL-28 4.55 µM

COC(=O)c1cc(O)ccc1NC(=O)c1ccc(O)cc1
inactive: HT-29 > 100 µM | SK-MEL-2 > 100 µM | EKVX > 100 µM | CAKI-1 79.4 µM | SNB-75 > 100 µM | OVCAR-8 > 100 µM | OVCAR-4 > 100 µM | SR > 100 µM | SF-295 > 100 µM | SF-539 > 100 µM | HCT-116 > 100 µM | NCI-H23 > 100 µM | HOP-92 87.7 µM | CCRF-CEM > 100 µM | OVCAR-5 > 100 µM | UACC-62 > 100 µM | HL-60 > 100 µM | SK-MEL-28 > 100 µM

Cc1cc2c(cc1Br)C1(C)CCC(C)C1(C)O2 (centres undefined)
inactive: HT-29 30.6 µM | SK-MEL-2 18.6 µM | EKVX 55.6 µM | CAKI-1 56 µM | SNB-75 36.6 µM | OVCAR-8 29.6 µM | OVCAR-4 39.8 µM | SR 13 µM | SF-295 17.3 µM | SF-539 > 100 µM | HCT-116 14 µM | NCI-H23 25.5 µM | HOP-92 20.9 µM | CCRF-CEM 22.1 µM | OVCAR-5 23.8 µM | UACC-62 44 µM | HL-60 13.4 µM | SK-MEL-28 38.4 µM
